Series [1] concerns ANGPTL3. Nature of the series: In vivo efficacy of ANGPTL3 GalNAc-siRNAs in hANGPTL3 humanized mice. Conditions: 3 mg/kg subcutaneous on day 0; days 7, 14, 21, 28; normalized to day -1; compared to the control; Fig. 1. How it is done:
To evaluate the in vivo efficacy of siRNA against ANGPTL3 in mice, female ANGPTL3 humanized mice (purchased from Shanghai Model Organisms Center, Inc.) were used for in vivo efficacy testing. Mice were randomly divided into 5 groups, with 5 mice per group: G1, Control (PBS) negative control group; G2, 2002-034-001 (3 mg/kg) treatment group; G3, 2008-010-001 (3 mg/kg) treatment group; G4, 2008-019-001 (3 mg/kg) treatment group; and G5, 2008-019-002 (3 mg/kg) treatment group.
On days -7 and -1, pre-dose plasma samples were obtained after a 4-hour fast. The above siRNA conjugates were diluted with saline and administered subcutaneously to the mice according to body weight on day 0. Plasma was collected after a 4-hour fast on days 7, 14, 21, and 28, respectively. The ANGPTL3 protein level in plasma was detected by ELISA (R&D Systems). Plasma triglycerides (TG), total cholesterol (CHO), high-density lipoprotein cholesterol (HDL-c), low-density lipoprotein cholesterol (LDL-c), alanine aminotransferase (ALT), and aspartate aminotransferase (AST) were tested by Shanghai Bikai Keyi Biotechnology Co., Ltd.
To evaluate the in vivo efficacy of the siRNAs against ANGPTL3 in mice, female ANGPTL3 humanized mice (purchased from Shanghai Model Organisms Center, Inc.) were used for the efficacy study. The mice were randomly allocated into five groups (n=5 per group) as follows: • G1: Control (PBS) negative control group; • G2: 2002-034-001 (3 mg/kg) treatment group; • G3: 2008-010-001 (3 mg/kg) treatment group; • G4: 2008-019-001 (3 mg/kg) treatment group; • G5: 2008-019-002 (3 mg/kg) treatment group.
The day of the first administration was designated as day 0. Accordingly, the day before administration was designated as day -1, and the day after administration as day 1.
On day -7, all mice were fasted for 4 hours, and mandibular blood was collected to obtain plasma for hANGPTL3 protein detection. […]
On day -1, pre-dose plasma samples were obtained after a 4-hour fast. […] The ANGPTL3 protein level in plasma was detected by ELISA (R&D Systems). […]

The test system of series [2] is ANGPTL3 Protein. Briefly: PCH free uptake, inhibition of ANGPTL3, ELISA of supernatant. The format is cell-based. The note with it: primary cynomolgus monkey hepatocytes, 72 hours. How it is done: PCH cells were resuscitated using 10% FBS InvitroGRO™ HT Medium, and subsequently, the cell density was adjusted to 3×10^5 cells/mL using 10% FBS InvitroGRO™ CP Medium. Then, 10 µL of the compound from the dilution plate was added to the cell culture plate, resulting in final compound concentrations of 25, 5, and 1 nM. The cells were seeded into a 96-well plate at a density of 27,000 cells per well (90 µL/well), with a final culture volume of 100 µL per well. The cells were cultured in a 5% CO2 incubator at 37 °C for 72 hours.
(§1) The supernatant from the PHH and PCH cultures from the previous steps was collected, transferred to a new 96-well V-bottom plate, and centrifuged. Human Angiopoietin-like 3 protein (hANGPTL3 protein; DANL30) ELISA test was performed according to the instructions of HANGPTL 3 protein Kit.
(§2) Data Analysis: Four Parameter Logistic method. This method constructs a standard curve by plotting, with the y-axis as the average absorbance of the standards and the x-axis as the concentration, drawing a best-fit curve through the points on the graph. The OD value of the log concentration of the sample's HANGPTL3 protein is determined against the best-fit line of the log concentration by regression analysis. [formula]
(§3) Sequences with good activity in Table 8 were evaluated for in vitro inhibitory activity against ANGPTL3 Protein in primary human hepatocytes (PHH) and primary cynomolgus monkey hepatocytes (PCH). Table 10. In Vitro Inhibitory Activity of MCPP-siRNAs against ANGPTL3 mRNA in PHH Cell Line
In general terms: An ELISA detects its analyte on a solid surface through an enzyme-linked reagent.

Series [3] has as its system ANGPTL3 Protein. Briefly: PHH free uptake, inhibition of ANGPTL3, ELISA of supernatant. The note with it: primary human hepatocytes, 72 hours. The format is cell-based. Here is the method: PHH cells were thawed and adjusted to a density of 6×10^5 cells/mL. Then, 10 µL of the compound from the dilution plate was added to the cell culture plate, resulting in final compound concentrations of 100, 40, 12.5, 5, and 2 nM. The cells were seeded into a 96-well plate at a density of 54,000 cells per well (90 µL/well), with a final culture volume of 100 µL per well. The cells were cultured in a 5% CO2 incubator at 37°C for 72 hours.
as §1, §2, §3

The subject of series [4] is ANGPTL3. Briefly: In vivo efficacy of ANGPTL3 GalNAc-siRNA in HFD-induced hyperlipidemic cynomolgus monkeys. The note with it: single subcutaneous injection, normalized to pre-treatment, Fig. 2. Here is the method: To evaluate the in vivo activity of siRNA against ANGPTL3, 6 HFD-induced hyperlipidemic cynomolgus monkeys were used for the experiment. Pre-dose serum samples were obtained after a 4-hour fast on days -7 and -14. The siRNA conjugate was diluted with saline and administered subcutaneously according to the experimental design on day 0. Blank saline was used as a negative control. Plasma was collected after a 4-hour fast on days 0, 7, 14, 28, 42, 49, and 56. Serum triglycerides were detected using an automatic biochemical analyzer.
The ANGPTL3 protein levels and triglyceride levels for each animal were normalized. For normalization, at a given time point, the ANGPTL3 protein and triglyceride levels of each animal were divided by the pre-treatment expression level of that animal (the average of the pre-experiment samples for that group) to determine the change in "normalization to pre-treatment".

On to “2008-010-001: GalNAc-conjugated modified ANGPTL3 siRNA, sense SEQ ID NO 40 (3'-YHZY12001), antisense SEQ ID NO 27 (sense GAGAAGAACUACAUAUAAA; antisense UUUAUAUGUAGUUCUUCUCAG; GalNAc conjugate YHZY12001 at sense 3', chemistry not fully specified) [Duplex 2008-010-001]”, for which the “level of ANGPTL3 protein in the plasma” value in series [1] is “significantly reduced”. Moreover, the “level of total cholesterol (CHO) in the plasma” value in series [1] is given as “significantly reduced”. The “level of triglycerides (TG) in the plasma” value in series [1] is “significantly reduced”. Further, the “Average Inhibition in PCH %” value in series [2] (1nM) turned out to be 62.75%; in series [2] (5nM), 74.73%; in series [2] (25nM), 78.39%. In addition, in series [3], the half-maximal inhibitory concentration (IC50) is 0.81 nM. Besides, the “serum ANGPTL3 protein level” value in series [4] was “significantly inhibited”. Moreover, the triglyceride level entry in series [4] (serum) is recorded as “significantly reduced”.

Broadly, the IC50 is the concentration that gives 50% inhibition.

These data come from patent EP4722363A1, “RNAI AGENT FOR INHIBITING ANGPTL3 EXPRESSION AND USE THEREOF” (YUN HO BIO CO., LTD, priority 2023, dated 2024).
